Reference: patent US20220151993A1, “TREATMENT OF ANXIETY AND DEPRESSION” (NEW YORK UNIVERSITY, priority 2020, published 2022)

Legend:
Format in all cases: in vivo, human
[1] = tested on: patients with cancer-related psychiatric and existential distress; test: Spielberger State-Trait Anxiety Inventory (STAI), long-term follow-up; settings: single 0.3 mg/kg dose with psychotherapy; for STAI State Anxiety: baseline 43.94; for STAI Trait Anxiety: baseline 47.81
Protocol: (§1) The present example assesses the long-term effects of a single dose of psilocybin (0.3 mg/kg) in conjunction with psychotherapy in patients with cancer-related psychiatric and existential distress.
(§2) 29 participants were randomly assigned to one of two groups: psilocybin (0.3 mg/kg) on the first medication session followed by niacin (250 mg) on the second session (i.e. psilocybin-first group), or niacin (250 mg) on the first medication session followed by psilocybin (0.3 mg/kg) on the second session (i.e. niacin-first group). Psilocybin and niacin were administered in identically appearing gelatin capsules.
(§3) Participants received three 2-hour preparatory psychotherapy sessions in order to review the purpose and intention of participation in the study, treatment goals, and structure of the treatment sessions. Medications were administered in 8-hour treatment sessions which included a discussion of the participant's subjective experience with the treatment team to consolidate the memory of the experience and to begin the process of post-integrative psychotherapy. Participants also received three 2-hour post-medication integration sessions (repeated after the second dosing session) to further consolidate the memory of the experience and to continue the process of psychological integration. All psychotherapy treatment sessions were delivered by a dyadic therapy team trained in a blend of psychotherapies with an evidence base to support their use in cancer patients (drawing upon principles of palliative care therapy, existential psychotherapy, cognitive-behavioural therapy, psychoanalysis therapy, and transpersonal psychology) and were taught about the safety and clinical pharmacology of psilocybin. Each therapy dyad underwent six confidential one-to-one sessions to build their alliance and exchange ideas about psychedelic therapy. The trial employed a crossover design at seven weeks following the first drug administration, with an outcome assessment at 6.5 months (26 weeks) following the second drug administration (i.e. after the crossover).
(§4) Two long-term follow ups (LTFUs) were carried out to assess the continued effect of psilocybin. Of the original 29 participants, all 16 participants who were not deceased at the time of LTFU were contacted (the remaining 13 participants were deceased). Of the 16 participants who were contacted, 15 agreed to participate in the LTFU and completed measures through a secure online portal. One participant died (from cancer-related complications) after completing the first LTFU and prior to the second LTFU, leaving us with 14 participants at the second LTFU. The first and second LTFUs occurred on average 3.2 years (range 2.3-4.5 years) and 4.5 years (range 3.5-5.5 years) following the participants' psilocybin dosing date, respectively.
Primary outcomes (anxiety and depression) were measured according to the following methods: • Hospital Anxiety and Depression Scale (HADS) (Zigmond and Snaith, 1983)—this is widely used in hospital settings to screen for the severity of anxiety and depression. It contains 14 questions rated on a four-point scale (total score (HAD-T) ranges from 0-56). Subscale scores can be calculated for depression (HADS-D) and anxiety (HADS-A). […] The HADS has shown good reliability (Cronbach's a ranging from 0.80-0.93) and has been well validated (Herrmann, 1997). • Beck Depression Inventory-II (BDI-II) (Beck et al., 1988)—a widely used self-report screening measure for depression. […]

[2] = tested on: patients with cancer-related psychiatric and existential distress; test: Hopelessness Assessment in Illness (HAI), long-term follow-up; settings: for Hopelessness: single 0.3 mg/kg dose with psychotherapy, baseline 5.75, p < 0.001 vs baseline
Protocol: as §1, §2, §3
Two long-term follow ups (LTFUs) were carried out to assess the continued effect of psilocybin. Of the original 29 participants, all 16 participants who were not deceased at the time of LTFU were contacted (the remaining 13 participants were deceased). […]
Cancer-related existential distress (demoralization, hopelessness, attitudes and effects associated with disease progression and death) was assessed using the following methods: • The Death Anxiety Scale (DAS) (Templer, 1970)—a 15-item measure that has been used most frequently to assess death anxiety. Items are scored “true” and “false” and then scored as one and zero, respectively. […]

[3] = tested on: patients with cancer-related psychiatric and existential distress; test: Existential distress measures (hopelessness, demoralization, death anxiety) combined: effect sizes
Protocol: as §1, §2, §3, §4
Cancer-related existential distress (demoralization, hopelessness, attitudes and effects associated with disease progression and death) was assessed using the following methods: • The Death Anxiety Scale (DAS) (Templer, 1970)—a 15-item measure that has been used most frequently to assess death anxiety. Items are scored “true” and “false” and then scored as one and zero, respectively. Total scores range between 0-15. Higher scores represent increased severity of death anxiety. Scores below eight are considered normative levels of death anxiety. Templer (1970) reported adequate test-retest reliability (r=0.83) and validity. • The Hopelessness Assessment in Illness (HAI) (Rosenfeld et al., 2011)—an eight-item instrument developed for use in patients with advanced cancer. Total scores range from 0-16. Higher scores indicate higher levels of hopelessness. Data have not been published regarding recommended clinical cut-off scores for this measure. […]

[4] = tested on: patients with cancer-related psychiatric and existential distress; test: Persisting Effects Questionnaire at second long-term follow-up; settings: second LTFU (4.5 years, n=14)
Protocol: as §2, §3
as §4, with “The first and second LTFUs occurred on average 3.2 years (range 2.3-4.5 years) and 4.5 years (range 3.5-5.5 years) following the participants' psilocybin dosing date, respectively.” left out
Persisting effects of psilocybin were assessed using the Persisting Effects Questionnaire (Griffiths et al., 2006, 2008) assesses self-rated changes in one's attitude, mood, behavior, and experience of spirituality. […]

[5] = tested on: patients with cancer-related psychiatric and existential distress; test: Lasting negative or adverse effects reported during long-term follow-up; settings: LTFU period; 13 of 14 participants provided information
Protocol: as §2
Participants received three 2-hour preparatory psychotherapy sessions in order to review the purpose and intention of participation in the study, treatment goals, and structure of the treatment sessions. Medications were administered in 8-hour treatment sessions which included a discussion of the participant's subjective experience with the treatment team to consolidate the memory of the experience and to begin the process of post-integrative psychotherapy. Participants also received three 2-hour post-medication integration sessions (repeated after the second dosing session) to further consolidate the memory of the experience and to continue the process of psychological integration. […]

[6] = mean score at 6.5-8 months, p < 0.001 vs baseline

CN(C)CCc1c[nH]c2cccc(OP(=O)(O)O)c12 [psilocybin, [3-(2-dimethylaminoethyl)-1H-indol-4-yl] dihydrogen phosphate]
STAI State Anxiety ([1]; mean score at 3.2 years, p < 0.01 vs baseline): 33.00
STAI State Anxiety ([1]; mean score at 4.5 years, p < 0.05 vs baseline): 34.41
STAI Trait Anxiety ([1]; mean score at 4.5 years, p < 0.01 vs baseline): 35.78
STAI State Anxiety [1, 6]: 29.84
STAI Trait Anxiety [1, 6]: 28.23
correlation (r) of length of time between psilocybin session and follow-up with HAI hopelessness change score ([2]; Spearman, second LTFU subtracted from two-weeks post-psilocybin dose scores, p<0.01): 0.69
Hopelessness ([2]; mean score at 3.2 years): 2.29
Hopelessness ([2]; mean score at 4.5 years): 1.65
Hopelessness ([2]; mean score at 6.5-8 months): 1.65
mean Cohen's d, reductions in hopelessness, demoralization and death anxiety since baseline ([3]; 6.5-month point): 1.39
range of Cohen's d, hopelessness, demoralization and death anxiety ([3]; 6.5-month point): 0.88-2.00
mean Cohen's d, reductions in hopelessness, demoralization and death anxiety since baseline ([3]; first LTFU (mean 3.2 years)): 1.39
range of Cohen's d, hopelessness, demoralization and death anxiety ([3]; first LTFU (mean 3.2 years)): 0.80-1.77
mean Cohen's d, reductions in hopelessness, demoralization and death anxiety since baseline ([3]; second LTFU (mean 4.5 years)): 1.60
range of Cohen's d, hopelessness, demoralization and death anxiety ([3]; second LTFU (mean 4.5 years)): 1.00-2.00
participants appraising the psilocybin session as increasing life satisfaction or wellbeing [4]: 86%
participants rating the psilocybin experience the single or top-five most personally meaningful experience(s) of their lives [4]: Seventy-one
participants rating the psilocybin experience the single or top-five most spiritually significant experience(s) of their lives [4]: ninety-six
volunteers reporting moderate, strong or extreme positive behavioral change attributed to the psilocybin experience [4]: 100%
lasting negative or adverse effects from the psilocybin-assisted therapy experiences [5]: None of the participants reported lasting negative or adverse effects
